Key:
[1] = biological target: human β2-adrenergic receptor (hβAR) (Homo sapiens, UniProt P07550)
Procedure: After 36 hours, cells were harvested and spheroplasts were prepared as described. […] Briefly, the spheroplasts were resuspended in 50 mM Tris-HCl pH 7.4, 5 mM EDTA and were lysed by vortex mixing with glass beads for three one-min periods at 4° C.
FIG. 2 illustrates hβAR ligand binding to membranes from pYβAR2-transformed yeast cells. […] Specific binding was defined as the amount of total binding (circles) minus nonspecific binding measured in the presence of 10 μM (−) alprenolol (squares).

[2] = biological target: T1, Human β-Adrenergic Receptor (Homo sapiens, UniProt P07550); conditions: Monkey COS-7 (pBC12: β, BAR); cited from earlier work
T1 construct: expressed in transfected cells; host or cells: monkey COS-7 cells

[3] = tested on: 8c cells coexpressing hβAR and rat Gsα; test: Shmoo formation (morphology) of yeast strain 8c (gpa1) coexpressing hβAR and rat Gsα
Procedure: Colonies were transferred to similar plates containing 0.5 mM ascorbic acid and the indicated adrenergic ligand(s). After 16-20 hours at 30° C., the colonies were transferred to similar liquid media at a density of 10^6-10^7 cells/ml and examined by phase contrast microscopy.

[4] = tested on: pheromone-responsive FUS1 gene promoter; test: FUS1-lacZ β-galactosidase induction in 8cl (gpal) cells coexpressing hβAR and rat Gsα; type: cell-based, yeast
Procedure: To confirm that the pheromone signaling pathway was activated by hβAR and rat Gsα, agonist induction of the pheromone-responsive FUSl gene promoter was measured in a strain of yeast derived from 8c cells (8cl) in which a FUS1-lacZ gene fusion had been stably integrated into the genome.
Strains 8c (FIG. 3, legend) and NNY19 (MATa ura3 leu2 his3 trp1 lys2 FUSl-LacZ::LEU2) were modified by integrative transformation with YIpFUS102 (LEU2), S. Nomoto et al., supra, and designated 8cl and NNY19, respectively. These strains were transformed with pYβAR2 and pYSK136Gαs and maintained on minimal selective plates containing glucose and 50 μM CuSO4. […] See J. Miller, supra.
Agonist stimulation was stereoselective and was blocked by addition of a specific antagonist. Agonist responsiveness was dependent on expression of both hβAR and rat Gsα, and required a strain in which the endogenous G protein α-subunit was disrupted.

CC(C)(C)NC[C@H](O)COc1cccc2[nH]c(C#N)c(I)c12 [125I-CYP, 125I-labeled cyanopindolol]
Kd ([1]; read-out: Kd for 125I-CYP binding, 125I-CYP 5-400 pM, nonspecific binding with 10 μM (−) alprenolol): 0.093 nM

CC(C)(C)NC[C@H](O)COc1cccc2[nH]c(C#N)c([125I])c12 [125I-CYP, 125I-labeled cyanopindolol]
Bmax, maximum ligand bound ([1]; Yeast SC261 (pYβAR2, pMTL9) membranes): 115 pmol/mg
binding of 125I-CYP to membranes ([1]; membranes from pYβAR2-transformed yeast cells): bound in a saturable manner and with high affinity
Bmax, maximum ligand bound [2]: 24 pmol/mg

C=CCc1ccccc1OCC(O)CNC(C)C (stereo not drawn) [alprenolol]
block of isoproterenol-induced shmoo formation ([3]; 100 μM (−) isoproterenol and 50 μM (−) alprenolol): blocked

CC(C)NCC(O)c1ccc(O)c(O)c1 (stereo not drawn) [isoproterenol]
induction of β-galactosidase activity ([4]; 8cl (gpal) cells, 4 hour incubation at 30° C.): dramatic isoproterenol-stimulated induction
final β-galactosidase activity relative to α-factor in nontransformed NNY19 cells ([4]; transformed 8cl cells vs NNY19 cells expressing GPA1): comparable to that induced by α-factor
shmoo formation ([3]; 100 μM isoproterenol, 16-20 hours at 30° C., phase contrast microscopy): induced shmoo formation

(−) epinephrine
Ki [1]: 664 ± 123 nM

From patent US7413876B2 (priority 1990, dated 2008)
